Assays:
[1] = Solution pH before and after addition of ASA to medium; assay type: physicochemical
Description: Prior to spray drying experiments, the solution pH of different solvents and the saturation solubility of ASA in different solvents was screened. The acidified mediums were prepared as follows:
8.5 ml of hydrochloric acid (about 35% v/v) was transferred into 900 ml of water and diluted to 1000 ml with water. 10.0 ml of this solution was diluted to 1000 ml with water. The pH of the solution was noted.
8.5 ml of hydrochloric acid (about 35% v/v) was transferred into 900 mL 96% ethanol and diluted to 1000 ml with water. 10.0 ml of this solution was diluted to 1000 ml with 96% ethanol. The pH of the solution was noted.
8.5 ml of hydrochloric acid (about 35% v/v) was transferred into 900 mL Tertiary butyl alcohol and diluted to 1000 ml with Tertiary butyl alcohol. 10.0 ml of this solution was diluted to 1000 ml with 96% Tertiary butyl alcohol. The pH of the solution was noted.
8.5 ml of hydrochloric acid (about 35% v/v) was transferred into 900 ml water and diluted to 1000 ml with water. 10.0 ml of this solution was diluted to 1000 ml with water. […] The pH of the solution was noted.
ASA has more solubility in non-aqueous media compared to aqueous media and ASA dissolves better in ethanol compared to tertiary butyl alcohol however it also has higher salicylic acid content (Tables 6 and 7). Once it is acidified the salicylic acid levels are lowered.

[2] = Salicylic acid content in sample solutions kept at benchtop; assay type: physicochemical; details: for Average conc. salicylic acid: no pH adjustment; for Average conc. salicylic acid / Average conc. of salicylic acid: benchtop
Description: In addition, storage stability screenings were conducted. The solutions prepared as previously described, were kept on a benchtop at 24+/−3° C. and 70% relative humidity. For media with no pH adjustment, the degradation of ASA is higher in ethanol as compared to the other media in the test (see Table 8). For media with pH adjustment, degradation of ASA in acidified TBA, acidified water and acidified water with mannitol were almost similar. Degradation in acidified TBA was higher than in acidified ethanol at 24+/−3° C. and 70% relative humidity (see Table 9).
It was observed that acidified ethanol has the highest solubility and stability. […] The finding of up to 72 hours stability is critical, because it allows manipulations during the manufacturing process and a manufacturing run of up to 3 days.

Compound: CC(=O)Oc1ccccc1C(=O)O [ASA, Acetyl salicylic acid]
- pH 48 hours after addition of ASA ([1]; 96% Ethanol, no prior pH adjustment (pH 7.06 before)): 3.09
- pH 48 hours after addition of ASA ([1]; Acidified 96% ethanol (pH 2.30 before)): 2.24
- pH 48 hours after addition of ASA ([1]; Acidified tert-butyl alcohol (pH 2.01 before)): 1.93
- pH 48 hours after addition of ASA ([1]; Acidified water (0.001N HCl) (pH 2.47 before)): 2.37
- pH 48 hours after addition of ASA ([1]; Acidified water + 60 g/L mannitol (pH 2.50 before)): 2.36
- pH 48 hours after addition of ASA ([1]; Milli-Q Water, no prior pH adjustment (pH 5.41 before)): 2.62
- pH 48 hours after addition of ASA ([1]; Tert-butyl alcohol, no prior pH adjustment (pH 4.89 before)): 3.40
- pH 48 hours after addition of ASA ([1]; Water + 60 g/L mannitol, no prior pH adjustment (pH 6.03 before)): 2.61
- Average conc. salicylic acid ([2]; 60 g/L mannitol, 0 hr): 0.262 mg/mL
- Average conc. salicylic acid ([2]; 60 g/L mannitol, 72 Hrs): 0.897 mg/mL
- Average conc. salicylic acid ([2]; 60 g/L mannitol, 6 hrs): 0.285 mg/mL
- Average conc. salicylic acid ([2]; 60 g/L mannitol, 12 hrs): 0.312 mg/mL
- Average conc. salicylic acid ([2]; 60 g/L mannitol, 24 hrs): 0.574 mg/mL
- Average conc. salicylic acid ([2]; 60 g/L mannitol, 48 hrs): 0.863 mg/mL
- Average conc. of salicylic acid ([2]; Acidified 60 g/L mannitol, 0 hr): 0.153 mg/mL
- Average conc. of salicylic acid ([2]; Acidified 60 g/L mannitol, 72 Hrs): 0.403 mg/mL
- Average conc. of salicylic acid ([2]; Acidified 60 g/L mannitol, 6 hrs): 0.167 mg/mL
- Average conc. of salicylic acid ([2]; Acidified 60 g/L mannitol, 12 hrs): 0.218 mg/mL
- Average conc. of salicylic acid ([2]; Acidified 60 g/L mannitol, 24 hrs): 0.260 mg/mL
- Average conc. of salicylic acid ([2]; Acidified 60 g/L mannitol, 48 hrs): 0.322 mg/mL
- Average conc. of salicylic acid ([2]; Acidified Tert-butyl alcohol, 0 hr): 0.237 mg/mL
- Average conc. of salicylic acid ([2]; Acidified Tert-butyl alcohol, 72 Hrs): 8.176 mg/mL
- Average conc. of salicylic acid ([2]; Acidified Tert-butyl alcohol, 6 hrs): 0.388 mg/mL
- Average conc. of salicylic acid ([2]; Acidified Tert-butyl alcohol, 12 hrs): 1.737 mg/mL
- Average conc. of salicylic acid ([2]; Acidified Tert-butyl alcohol, 24 hrs): 3.135 mg/mL
- Average conc. of salicylic acid ([2]; Acidified Tert-butyl alcohol, 48 hrs): 5.403 mg/mL
- Average conc. of salicylic acid ([2]; Acidified ethanol 96%, 0 hr): 0.901 mg/mL
- Average conc. of salicylic acid ([2]; Acidified ethanol 96%, 72 Hrs): 1.627 mg/mL
- Average conc. of salicylic acid ([2]; Acidified ethanol 96%, 6 hrs): 0.947 mg/mL
- Average conc. of salicylic acid ([2]; Acidified ethanol 96%, 12 hrs): 1.130 mg/mL
- Average conc. of salicylic acid ([2]; Acidified ethanol 96%, 24 hrs): 1.280 mg/mL
- Average conc. of salicylic acid ([2]; Acidified ethanol 96%, 48 hrs): 1.430 mg/mL
- Average conc. of salicylic acid ([2]; Acidified water, 0 hr): 0.162 mg/mL
- Average conc. of salicylic acid ([2]; Acidified water, 72 Hrs): 0.402 mg/mL
- Average conc. of salicylic acid ([2]; Acidified water, 6 hrs): 0.168 mg/mL
- Average conc. of salicylic acid ([2]; Acidified water, 12 hrs): 0.217 mg/mL
- Average conc. of salicylic acid ([2]; Acidified water, 24 hrs): 0.269 mg/mL
- Average conc. of salicylic acid ([2]; Acidified water, 48 hrs): 0.327 mg/mL
- Average conc. salicylic acid ([2]; Ethanol 96%, 0 hr): 1.092 mg/mL
- Average conc. salicylic acid ([2]; Ethanol 96%, 72 Hrs): 24.768 mg/mL
- Average conc. salicylic acid ([2]; Ethanol 96%, 6 hrs): 1.961 mg/mL
- Average conc. salicylic acid ([2]; Ethanol 96%, 12 hrs): 3.315 mg/mL
- Average conc. salicylic acid ([2]; Ethanol 96%, 24 hrs): 18.682 mg/mL
- Average conc. salicylic acid ([2]; Ethanol 96%, 48 hrs): 21.522 mg/mL
- Average conc. salicylic acid ([2]; Tert-butyl alcohol, 0 hr): 0.543 mg/mL
- Average conc. salicylic acid ([2]; Tert-butyl alcohol, 72 Hrs): 18.135 mg/mL
- Average conc. salicylic acid ([2]; Tert-butyl alcohol, 6 hrs): 0.988 mg/mL
- Average conc. salicylic acid ([2]; Tert-butyl alcohol, 12 hrs): 1.669 mg/mL
- Average conc. salicylic acid ([2]; Tert-butyl alcohol, 24 hrs): 9.261 mg/mL
- Average conc. salicylic acid ([2]; Tert-butyl alcohol, 48 hrs): 16.238 mg/mL
- Average conc. salicylic acid ([2]; Water, 0 hr): 0.269 mg/mL
- Average conc. salicylic acid ([2]; Water, 72 Hrs): 0.904 mg/mL
- Average conc. salicylic acid ([2]; Water, 6 hrs): 0.289 mg/mL
- Average conc. salicylic acid ([2]; Water, 12 hrs): 0.312 mg/mL
- Average conc. salicylic acid ([2]; Water, 24 hrs): 0.574 mg/mL
- Average conc. salicylic acid ([2]; Water, 48 hrs): 0.854 mg/mL
- % of salicylic acid ([2]; acidified ethanol, up to 72 hours (Limit Not more than 5%)): less than 2%

Reference: patent US12357644B2, “Acetyl salicylic acid composition for intravenous administration, its storage, production and use” (HYLORIS DEVELOPMENTS SA, priority 2022, dated 2025)
